In patent US12433892B2, “Compositions and methods of treatment for neurological disorders comprising depression” (Gliapharm SA, priority 2018, dated 2025):
Where a name gives a salt, the structure may show the parent alone.

What was measured:
astrocytes [1] = assay: Extracellular lactate quantification; type: cell-based, mouse; design: Score_LACTATE / Score Lact.: scale not given here; conditions: Appendix II; for EC50: Mus musculus, Astrocyte, lactate secretion
Method: Primary cultures of cerebrocortical astrocytes were obtained from 1-2-day-old OF1 mouse pups (Charles River Laboratories). Briefly, cortices were isolated and minced in small pieces under a dissecting microscope. The cells were incubated for 30 min at 37° C. in a solution containing 20 U/ml of papain enzyme (Worthington Biochemical), L-cysteine 1 mM (Sigma), and 10 kU/ml DNase I (Worthington Biochemical) for an enzymatic dissociation. Papain activity was stopped by the addition of fetal calf serum (FCS) to the solution, and a single-cell suspension was then obtained by mechanical dissociation, which consisted in cells trituration in a DMEM (D7777, Sigma-Aldrich) medium (supplemented with 44 mm NaHCO3, and 10 ml/L antibiotic/antimycotic solution) containing 10% FCS. The cells were seeded at an average density of 6×10^4 cells/cm^2 in poly-D-lysine-coated 96, 12 or 6-well culture plates, depending on their use, and incubated at 37° C. in a humidified atmosphere containing 5% CO2/95% air. Culture medium was renewed twice per week. Cells were stimulated and harvested between DIV14 and DIV17, when confluence and cell growth were optimal.
Secretion of L-lactate was determined in the extracellular medium of 96-well plated astrocytes after 90 min stimulation (at 37° C., in 5% CO2/95% air conditions) with the drug of interest. The stimulation medium was composed of D5030 medium (completed with D-glucose 5 mM and 44 mM sodium bicarbonate) for 90 min in concentrations ranging from 0 to 100 μM.
Briefly, 200 μl of a Glycine (Sigma)-Semicarbazide (Acros) 0.2M pH 10 buffer containing 3 mM NAD (Roche) and LDH 14 U/ml (Roche) was added to each well of a 96-well plate containing 30 μl aliquots complemented with 20 μl fresh complete D5030 medium. Samples were incubated at 37° C. for 1 h. After samples cooled down at room temperature, the fluorescence intensity (340 nm excitation/450 nm emission) that represents the amount of NADH produced was measured, and lactate concentration values were determined from a standard curve of L-lactate.
(§1) Statistical analysis consisted in ANOVA followed by Fisher LSD post-hoc test for pair-wise comparisons.
Levels of lactate secreted by astrocytes were measured in the extracellular medium at 90 min after stimulation with hits (molecules) from the CDC54K library.

astrocytes [2] = assay: Intracellular glycogen quantification; type: cell-based, mouse; conditions: Prestwick hits; 10 uM, 3 h
Method: For glycogen dosage, a protein dosage was first performed in order to assess whether harvested astrocytes from primary cell cultures yielded enough and equivalent amounts of proteins comparing each replicate, and to ensure that the obtained differences in glycogen quantities were due to drug action and not to inner protein quantities.
Astrocytes used for these dosages were previously grown in 6-well plates for 17 days and stimulated with Vehicle (DMSO) or drug of interest (1 μM to 100 μM) for 180 min, at 37° C. 5% CO2/95% air in D5030 complete medium. Medium was removed and replaced with 600 μl of 30 mM Tris HCl, and stored at −20° C.
Proteins were dosed using the micro BCA Protein Assay kit (Thermo Scientific), as described in the manufacturer's instructions. Briefly, thawed cells were sonicated and 5 μl aliquots were placed in a transparent 96-well plate, to which we added 25 μl 30 mM Tris HCl, 70 μl H2O and 100 μl of a BCA mix (made as described in manufacturer's guidelines). After a 120 min-incubation at 37° C., absorbance was measured with Safire 2 spectrophotometer at a wavelength of 562 nm, and protein quantities were determined from a standard curve of Bovine Serum Albumin (BSA).
Glycogen was quantified using a 250 μl-aliquot of the same stimulated, thawed, and sonicated cells. After an incubation period of 30 min at 90° C. and 400 rpm, 28 μl of an acetic acid/sodium acetate (both from Sigma) 0.1M pH 4.6 buffer was added to each aliquot, which was then separated in two. Each split aliquot received whether 5 μl of amyloglucosidase (Roche) or 5 μl H2O, and all cell solutions were incubated for 120 min in a shaking 37° C.-waterbath. After a centrifugation at 16'000 G for 5 min, 20 μl of supernatant were placed 96-well plate, to which 150 μl of a mix containing 0.67 mM ATP (Roche), 0.67 mM NADP (Roche), 1.8% hexokinase/glucose-6-phosphate dehydrogenase (Roche) and 0.1M Tris Buffer-HCl/3.3 mM magnesium (Fluka)/pH 8.1 buffer was added. Fluorescence was measured with Safire 2 spectrophotometer (340 nm excitation/440 nm emission). Glycogen concentration was obtained by subtracting glucose value of samples with amyloglucosidase to samples without amyloglucosidase, and were expressed relative to the amount of proteins previously determined.
Levels of intracellular glycogen in astrocytes were measured at 3 h after stimulation with 20 hits from the Prestwick library (10 μM each), as shown in FIG. 2. n=6-10; Ctrl pos. is glutamate (0.5 mM). Statistical analysis consisted in ANOVA followed by Fisher LSD post-hoc test for pair-wise comparisons.
as §1

| EC50 (astrocytes [1]) [µM] | Compound | Score Lact. (astrocytes [1]) | Glycogen (statistical significance of glycogen degradation) (astrocytes [2]) |
| --- | --- | --- | --- |
|  | CC(=O)Nc1cccc(NC(=O)CSc2nc(C)c(C)n2C2CCCC2)c1 [T5788339] | 0.75 |  |
|  | O=C(Nc1ccc(F)c(F)c1)c1ccc(Cl)c(S(=O)(=O)N2CCCC2)c1 [T5450239] | 0.67 |  |
|  | COc1ccc(NS(=O)(=O)c2cccc(NC(=O)c3cccs3)c2)cc1 [T0517-4117] | 0.91 |  |
|  | CCc1ccc(NS(=O)(=O)c2c(C)c(-c3nnc(C4CC4)o3)n(C)c2C)cc1 [M950-1515] | 0.67 |  |
|  | COc1cccc(C(CNc2nc(C(F)(F)F)nc3ccccc23)N(C)C)c1 (stereo not drawn) [T5800607] | 063 |  |
|  | FC(F)(F)c1cccc(CNc2ncnc3[nH]ncc23)c1 [F5285-0069] | 0.36 |  |
| 3.84 | Cc1sc2nc(CNc3nc4ccccc4c(=O)n3C)[nH]c(=O)c2c1C [T0517-2783] | 0.46 |  |
|  | CS(=O)(=O)NC1CCN(C(=O)c2ccc(F)cc2)C1 (stereo not drawn) [Z603-8037] | 0.32 |  |
|  | Cc1cc(/C=C/c2ccc3cc(N(C)C)ccc3[n+]2C)c(C)n1-c1ccccc1 [Pyrvinium pamoate] |  | **** (****p<0.0001) |
|  | CCCCOc1cc(C(=O)NCCN(CC)CC)c2ccccc2n1 [Dibucaine] |  | * (*p<0.05) |
|  | CC(=O)N1CC(C)(C)c2cc(S(=O)(=O)Nc3ccc(F)cc3C)ccc21 [L302-0181] | 0.52 |  |
|  | CCCC(=O)Nc1nc(-c2ccc3c(c2)CCO3)cs1 [T5691896] | 0.38 |  |
|  | c1nc(NCc2ccc3c(c2)OCO3)c2sccc2n1 [T5787526] | 0.71 |  |
| 4.26 | CCNc1cc(C)nc(Nc2ccc(NC(=O)Cc3ccccc3)cc2)c1 [G869-0064] | 0.54 |  |
| 6.02 | CC(C)S(=O)(=O)c1ccc(NS(=O)(=O)c2ccc(Cl)cc2)cc1 [T5311200] | 0.56 |  |
|  | CC(C)[N+](C)(CCOC(=O)C1c2ccccc2Oc2ccccc21)C(C)C [Propantheline bromide] |  | **** (****p<0.0001) |
|  | CCOc1ccc(C2(O)C(C)[N+]3=C(CCC3)N2c2ccc(OC)cc2)cc1.[Br-] (stereo not drawn) [T0500-6629] | 0.61 |  |
|  | CCc1ccc(S(=O)(=O)Nc2cc3c(cc2C)n(C)c(=O)n3C)cc1 [G433-0293] | 0.74 |  |
|  | N#Cc1ccc(S(=O)(=O)Nc2ccccc2C(=O)NCc2ccccc2)cc1 [T5673322] | 0.63 |  |
| 1.59 | Cc1ccc(-c2c[nH]c(NC(=O)c3ccncc3)n2)cc1[N+](=O)O [T5694329] | 0.47 |  |
|  | CC(COc1ccccc1)NC(C)C(O)c1ccc(O)cc1 (stereo not drawn) [Isoxsuprine hydrochloride] |  | ** (**p<0.01) |
|  | COc1cc(C)c(NC(=O)Cc2ccc(Cl)c(Cl)c2)cc1OC [T5783794] | 0.44 |  |

| EC50 (astrocytes [1]) [µM] | Compound | Score Lact. (astrocytes [1]) | Glycogen (statistical significance of glycogen degradation) (astrocytes [2]) |
| --- | --- | --- | --- |
|  | c1ccc(CN2CCOCC2)c(CNc2ncnc3ccsc23)c1 [T5790476] | 0.79 |  |
|  | CCNc1cc(C)nc(Nc2ccc(NC(=O)c3cccs3)cc2)n1 [G869-0071] | 0.63 |  |
|  | CC(C)(C)NS(=O)(=O)c1cccc(C(=O)Nc2ccncc2)c1 [T5827594] | 0.71 |  |
|  | COc1ccc(NS(=O)(=O)c2ccc(N3CCCCS3(=O)=O)cc2)cc1 [G508-0015] | 0.67 |  |
|  | CCn1c(=O)c(C)nc2cc(C(=O)N(Cc3ccc(F)cc3)C3CC3)ccc21 [T5586091] | 0.45 |  |
|  | Cn1c(=O)c(N2CCC(NC(=O)Nc3cccc(Cl)c3)CC2)nc2ccccc21 [L932-0267] | 0.53 |  |
|  | N#Cc1cc(C(=O)c2cc(F)ccc2O)cn(-c2ccc(F)c(Cl)c2)c1=O [T0516-6894] | 0.38 |  |
| 5.5 | O=S(=O)(Nc1ccc(F)cc1)c1ccc(F)c(Cl)c1 [T6947848] | 0.98 |  |
|  | CCc1ccccc1NC(=O)CN(C)c1ncnc2c1oc1ccccc12 [T5712071] | 0.8 |  |
|  | CC[N+](CC)(CC(=O)Nc1c(C)cccc1C)Cc1ccccc1 [Denatonium benzoate] |  | ** (**p<0.01) |
|  | Cc1sc2nc(CSc3nc4ccccc4[nH]3)nc(N)c2c1C [T5719257] | 0.74 |  |
|  | COc1ccc(C(C)NC(=O)c2cc(=O)c3ccccc3o2)cc1F (stereo not drawn) [T5710343] | 0.67 |  |
|  | CCC(C)NS(=O)(=O)c1ccc(Oc2ccc(C)cc2)cc1 (stereo not drawn) [T5400234] | 0.33 |  |
|  | Clc1ccc2c(c1)CCc1cccnc1C2=C1CCNCC1 [Desloratadine] |  | * (*p<0.05) |
| 4.61 | Cc1nc2ccc(NC(=O)c3ccc4c(c3)CC(C)N4S(C)(=O)=O)cc2[nH]1 (stereo not drawn) [T5606387] | 0.38 |  |
|  | Cc1c(C)c2c(c(C)c1O)CCC(C)(COc1ccc(CC3SC(=O)NC3=O)cc1)O2 (stereo not drawn) [Troglitazone] |  | *** (***p<0.001) |
| 5.36 | CCN(CC)S(=O)(=O)c1ccc(S(=O)(=O)Nc2ccc(C)cc2C)cc1 [T5453923] | 0.66 |  |
| 5.82 | O=C(Nc1cccc([N+](=O)[O-])c1)c1ccc(S(=O)(=O)NCC2CCCO2)cc1 (stereo not drawn) [T6010789] | 1.31 |  |
| 5.87 | Cc1cccc(NS(=O)(=O)c2ccc(Cl)c(Cl)c2)c1 [F3394-1364] | 0.33 |  |
| 6.84 | O=c1[nH]nc(NCCOc2ccc(Br)cc2)n1C1CC1 [T533260] | 0.53 |  |
|  | COc1ccccc1NC(=O)CO/N=C(/N)c1cccc(C(F)(F)F)c1 [T5770640] | 0.55 |  |
|  | COc1ccc(NS(=O)(=O)c2cccc(NC(=O)c3ccccc3)c2)cc1 [T5274959] | 0.68 |  |
